For orientation: EC50 means the concentration at which the effect is half-maximal. A high value points to weaker potency. As usually defined, the IC50 is the point on the concentration scale where inhibition reaches its midpoint.

In one experiment the target is NK1 receptors (Cavia porcellus, UniProt P30547). Description: Functional NK1 antagonism on isolated guinea pig aorta ring preparations (Substance P induced relaxation). The arrangement: from tissue; host or cells: guinea pig aorta ring preparations; species or system Pirbright-White guinea pigs. The procedure: In The Netherlands, the action antagonistic to NK1 receptors of the test substances was measured in vitro on isolated ring preparations, kept in an oxygenated nutrient solution, of the aortas of Pirbright-White guinea pigs.
In order to measure the contraction of the vessel muscles, the preparations were fixed to a hook, joined by a thread to a force measuring apparatus and the contractions were recorded in each case on a plotter. The aorta preparations were tonicised with phenylephrine. […] The relaxations before and after the administration of the test substance were quantified in percent. The effective concentration of the half maximum inhibition of the relaxation of the tone (= EC50) was calculated. The negative common logarithm of the EC50 value (= pEC50) was given as characteristic variable. The pEC50 value is a measurement of the functional effectiveness of the test substances on NK1 receptors.

For another experiment, the target named is T1, human NK1 receptors (Homo sapiens, UniProt P25103).
T1 construct: expressed in transfected cells; host or cells: CHO cells (membrane preparation)
Description: Binding of the test substances to NK1 receptors in vitro ([3H]-Substance P displacement, CHO cell membranes). Conditions: [3H]-Substance P as ligand; membranes of CHO cells expressing the human NK1 receptor; Ki calculated from IC50; read-out: pKi (NK1) (converted). Here is the method:
In The Netherlands, the affinity of the test substances to human NK1 receptors was measured in vitro.
The receptor binding studies were performed with [^3H]-Substance P as ligand. For the binding test, different samples of a membrane preparation of CHO cells (= egg cells of the Chinese hamster, Chinese hamster oocytes), which express the human NK1 receptor ("Accession Number" of the associated nucleic acid sequence = M74290; "Accession Number" of the associated protein sequence = P25103; cf. Takeda, Y.; Chou, K. B., Takeda, J.; Sachais, B.S. and Krause, J. E; Biochemical and Biophysical Research Communications, 179(3) (1991) 1232 - 1240), were incubated with a solution of the marked ligand, with the incubation mixtures containing no test substance or additions of different concentrations of test substance. Then, separation of bound and free ligands was performed in each of the samples with the aid of glass-fibre filtration. The fraction remaining in the filter was washed several times with buffer solution and then the radioactivity of the fraction remaining in the filter was measured using a beta scintillation counter.
For the compounds of Examples 1 to 14, that concentration which effects half maximum displacement of the bound ligand was determined as IC50 of the respective test substance. From this, the corresponding inhibition constant (Ki value) of the test substance was calculated, and was stated as the negative common logarithm of the Ki value (= pKi value). The pKi value is a measurement of the affinity of the test substances to human NK1 receptors.

For experiment [1], the target named is T2, cloned human NK2 receptors (Homo sapiens, UniProt P21452).
T2 construct: expressed in transfected cells
T2 sequence (P21452 1-398): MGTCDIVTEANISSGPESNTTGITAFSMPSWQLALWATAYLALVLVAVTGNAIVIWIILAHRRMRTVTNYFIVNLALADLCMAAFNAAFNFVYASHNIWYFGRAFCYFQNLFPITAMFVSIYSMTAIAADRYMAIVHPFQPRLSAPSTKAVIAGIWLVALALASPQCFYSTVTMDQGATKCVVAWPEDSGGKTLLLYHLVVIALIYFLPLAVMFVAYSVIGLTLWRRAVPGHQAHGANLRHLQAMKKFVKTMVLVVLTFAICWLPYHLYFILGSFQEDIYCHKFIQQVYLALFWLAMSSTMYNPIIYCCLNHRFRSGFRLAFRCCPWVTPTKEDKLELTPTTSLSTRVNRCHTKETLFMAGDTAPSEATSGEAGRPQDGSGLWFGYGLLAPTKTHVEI
Description: Ca2+ measurements using FLIPR for NK2 activity in CHO cells. The class given is cell-based. Conditions: NKA 10^-7 M as agonist; compound applied 7 min before; pA2 calculated from IC50. An excerpt:
(§1) The NK receptor is coupled to Gq.
(§2) All steps were done under sterile conditions. […] The results are summarized in table 5: Table 5: pA2 data for NK1 and NK2: […]

A further experiment addresses T3, NK2 receptors (Cavia porcellus, UniProt Q64077).
T3 sequence (Q64077 1-402): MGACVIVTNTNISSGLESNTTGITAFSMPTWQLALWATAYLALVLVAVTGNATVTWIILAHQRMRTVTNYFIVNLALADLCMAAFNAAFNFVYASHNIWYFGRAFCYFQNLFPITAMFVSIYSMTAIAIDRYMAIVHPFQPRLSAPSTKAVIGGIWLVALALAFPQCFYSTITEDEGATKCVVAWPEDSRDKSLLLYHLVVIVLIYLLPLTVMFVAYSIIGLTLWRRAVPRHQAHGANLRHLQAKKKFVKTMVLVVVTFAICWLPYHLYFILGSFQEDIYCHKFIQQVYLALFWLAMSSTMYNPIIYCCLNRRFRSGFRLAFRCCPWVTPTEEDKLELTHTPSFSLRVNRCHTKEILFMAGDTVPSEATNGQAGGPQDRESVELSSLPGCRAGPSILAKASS
Description: Functional NK2 antagonism on isolated guinea pig gall-bladder preparations (NKA induced contraction). The arrangement: from tissue; host or cells: guinea pig gall-bladder preparations; species or system Pirbright-White guinea pigs. The procedure:
The NK2 receptor-antagonising action of the test substances was determined on isolated gall-bladder preparations from Pirbright-White guinea pigs, held in an oxygen-saturated nutrient solution. To this end, the preparations were fastened on one hand in the nutrient solution to organ holders and on the other hand on a force meter by a thread.
The concentration of the test substances was increased iteratively in the subsequent experiments as a function of the result in logarithmic whole or half steps, until at least one concentration above or below 50% inhibition of contraction was determined (up to at most 10^-5 mol/l). For each concentration, the average value of inhibition of contraction was calculated from 2 to 4 preparations. In each case, the concentration of half-maximum inhibition (IC50) per test substance was calculated as characteristic variable.

In experiment [2] the target is T4, cloned human NK1 receptors (Homo sapiens, UniProt P25103).
T4 construct: expressed in transfected cells
Description: Ca2+ measurements using FLIPR for NK1 activity in CHO cells. The class given is cell-based. Conditions: substance P 10^-8 M as agonist; compound applied 7 min before; pA2 calculated from IC50.
From the text: as §1, §2

The structures appear in SMILES notation.

NK1 receptors, sequence (P30547 whole entry): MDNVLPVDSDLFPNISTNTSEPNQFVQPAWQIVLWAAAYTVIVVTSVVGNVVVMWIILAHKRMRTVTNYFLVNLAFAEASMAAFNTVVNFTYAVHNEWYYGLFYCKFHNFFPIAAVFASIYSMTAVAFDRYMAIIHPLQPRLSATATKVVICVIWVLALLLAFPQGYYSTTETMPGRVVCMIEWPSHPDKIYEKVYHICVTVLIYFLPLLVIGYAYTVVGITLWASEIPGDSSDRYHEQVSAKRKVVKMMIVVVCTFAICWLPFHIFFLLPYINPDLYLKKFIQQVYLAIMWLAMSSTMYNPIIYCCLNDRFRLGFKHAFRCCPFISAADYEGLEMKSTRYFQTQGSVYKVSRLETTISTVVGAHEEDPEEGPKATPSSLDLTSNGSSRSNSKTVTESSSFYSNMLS
T1 sequence (P25103 whole entry): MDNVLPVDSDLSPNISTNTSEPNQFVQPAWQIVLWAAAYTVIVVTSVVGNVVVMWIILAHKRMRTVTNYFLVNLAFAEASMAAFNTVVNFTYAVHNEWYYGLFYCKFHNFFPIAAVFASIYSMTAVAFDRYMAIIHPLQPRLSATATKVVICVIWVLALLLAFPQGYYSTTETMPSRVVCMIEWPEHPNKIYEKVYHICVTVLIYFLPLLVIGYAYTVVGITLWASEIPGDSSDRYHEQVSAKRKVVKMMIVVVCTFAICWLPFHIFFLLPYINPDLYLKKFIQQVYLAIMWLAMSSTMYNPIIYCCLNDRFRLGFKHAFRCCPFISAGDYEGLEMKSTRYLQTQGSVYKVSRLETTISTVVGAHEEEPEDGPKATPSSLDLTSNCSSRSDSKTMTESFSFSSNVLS
T4 sequence (P25103 whole entry): as above

The compound `CN(C[C@@H](CCN1CCN([C@@H](c2ccco2)[C@H](O)CO)CC1)c1ccc(Cl)c(Cl)c1)C(=O)c1cc(C#N)cc2ccccc12` [Compound 1, 3-cyano-N-[(2S)-2-(3,4-dichlorophenyl)-4-{4-[(1R,2S)-1-(2-furyl)-2,3-dihydroxypropyl]piperazin-1-yl}butyl]-N-methyl-1-naphthamide] showed an EC50 on NK1 receptors of 0.398 nM. At human NK1 receptors, the Ki was 3.98 nM. For the same compound, the Kb in experiment [1] was 10 nM; in experiment [2], 1.26 nM. On NK2 receptors, this compound showed an IC50 of 2 nM.
`CN(C[C@@H](CCN1CCN([C@@H](c2ccco2)[C@H](O)[C@@H](O)[C@H](O)CO)CC1)c1ccc(Cl)c(Cl)c1)C(=O)c1cc(C#N)cc2ccccc12` [Compound 2, 3-cyano-N-[(2S)-2-(3,4-dichlorophenyl)-4-{4-[(1R,2S,3R,4R)-1-(2-furyl)-2,3,4,5-tetrahydroxypentyl]piperazin-1-yl}butyl]-N-methyl-1-naphthamide] showed an EC50 on NK1 receptors of 0.316 nM. At human NK1 receptors, the Ki is 3.16 nM. This compound gave an IC50 against NK2 receptors of 20 nM.
On to `CN(C[C@@H](CCN1CCN(C(CO)(CO)c2ccco2)CC1)c1ccc(Cl)c(Cl)c1)C(=O)c1cc(C#N)cc2ccccc12` [Compound 6, 3-cyano-N-[(2S)-2-(3,4-dichlorophenyl)-4-{4-[1-(2-furyl)-2-hydroxy-1-(hydroxymethyl)ethyl]piperazin-1-yl}butyl]-N-methyl-1-naphthamide], for which the EC50 at NK1 receptors was 0.398 nM. The Ki at human NK1 receptors is 5.01 nM. In addition, inhibition against NK2 receptors was half-maximal at 39.8 nM (IC50).
At NK1 receptors, `CN(C[C@@H](CCN1CCN([C@@H](c2ccco2)[C@H]2COC(=O)O2)CC1)c1ccc(Cl)c(Cl)c1)C(=O)c1cc(C#N)cc2ccccc12` [Compound 11, 3-cya no-N-[(2S)-2-(3,4-dichlorophenyl)-4-(4-{(R)-2-furyl[(4S)-2-oxo-1,3-dioxolan-4-yl]methyl}piperazin-1-yl)butyl]-N-methyl-1-naphthamide] showed an EC50 of 1.26 nM. For the same compound, the Ki at human NK1 receptors is 7.94 nM. The same compound had a half-maximal inhibitory concentration (IC50) against NK2 receptors of 15.8 nM.

Values taken from patent publication EP1954678B1, “NOVEL NK1 AND NK2 ANTAGONISTS” (Abbott Products GmbH, priority 2005, dated 2007).
